In PubChem BioAssay AID248 (DTP/NCI, 2004):
“And” between values parts separate entries of the source, which are not always exact repeats. Equal values may be shown once. Inconclusive results and toxic doses are left out. No stated cut-off is given here; in the data, active means T/C of 150% or more; inactive means T/C below 125%.

System: L1210 leukemia ip in BDF1 mice, survival T/C
Assay: NCI In Vivo Anticancer Drug Screen. Data for tumor model L1210 Leukemia (intraperitoneal) in B6D2F1 (BDF1) mice
Details: endpoint: mean survival time, higher = longer survival
Outline: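 Tumor was transplanted into mice, which were then dosed with test compound or vehicle alone. Survival was recorded for each group, and the treated figure was expressed relative to the control figure.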

[1] = dose: 200.0 mg/kg/injection, schedule: Q04DX002 (ip), vehicle: saline with Tween-80
[2] = dose: 400.0 mg/kg/injection, schedule: Q04DX002 (ip), vehicle: saline with Tween-80
[3] = dose: 100.0 mg/kg/injection, schedule: Q01DX001 (ip), vehicle: gum acacia
[4] = dose: 200.0 mg/kg/injection, schedule: Q01DX001 (ip), vehicle: gum acacia
[5] = dose: 400.0 mg/kg/injection, schedule: Q01DX001 (ip), vehicle: gum acacia
[6] = dose: 40.0 mg/kg/injection, schedule: Q01DX001 (ip), vehicle: saline
[7] = dose: 100.0 mg/kg/injection, schedule: Q01DX001 (ip), vehicle: saline
[8] = dose: 100.0 mg/kg/injection, schedule: Q01DX009 (ip), vehicle: saline with Tween-80
[9] = dose: 100.0 mg/kg/injection, schedule: Q04DX003 (ip), vehicle: saline
[10] = dose: 200.0 mg/kg/injection, schedule: Q01DX001 (ip), vehicle: saline
[11] = dose: 200.0 mg/kg/injection, schedule: Q01DX009 (ip), vehicle: saline with Tween-80
[12] = dose: 200.0 mg/kg/injection, schedule: Q04DX003 (ip), vehicle: saline
[13] = dose: 400.0 mg/kg/injection, schedule: Q01DX001 (ip), vehicle: saline
[14] = dose: 400.0 mg/kg/injection, schedule: Q04DX003 (ip), vehicle: saline
[15] = dose: 25.0 mg/kg/injection, schedule: Q04DX003 (ip), vehicle: saline
[16] = dose: 50.0 mg/kg/injection, schedule: Q04DX003 (ip), vehicle: saline
[17] = dose: 100.0 mg/kg/injection, schedule: Q04DX002 (ip), vehicle: Klucel (hydroxypropylcellulose) (HPC)
[18] = dose: 100.0 mg/kg/injection, schedule: Q01DX009 (ip), vehicle: Klucel (hydroxypropylcellulose) (HPC)
[19] = dose: 200.0 mg/kg/injection, schedule: Q01DX009 (ip), vehicle: Klucel (hydroxypropylcellulose) (HPC)
[20] = dose: 400.0 mg/kg/injection, schedule: Q01DX009 (ip), vehicle: Klucel (hydroxypropylcellulose) (HPC)
[21] = dose: 100.0 mg/kg/injection, schedule: Q04DX002 (ip), vehicle: saline with Tween-80

Measured: T/C

CCCCCCCCCCCC[N+]1([O-])CCOCC1
inactive: [1] 94 % of control | [2] 102 % of control

CCNS(=O)(=O)c1cccc(C(N)=S)c1
inactive: [3] 103 % of control | [4] 105 % of control | [5] 106 % of control

COCCNC(=O)N(CCOC)N=O
inactive: dose: 9.0 mg/kg/injection, schedule: Q01DX001 (ip), vehicle: saline 101 % of control | dose: 13.0 mg/kg/injection, schedule: Q01DX001 (ip), vehicle: saline 96 % of control | dose: 26.0 mg/kg/injection, schedule: Q01DX001 (ip), vehicle: saline 102 % of control | [6] 104 % of control | dose: 60.0 mg/kg/injection, schedule: Q01DX001 (ip), vehicle: saline 102 % of control | dose: 93.0 mg/kg/injection, schedule: Q01DX001 (ip), vehicle: saline 95 % of control | dose: 187.0 mg/kg/injection, schedule: Q01DX001 (ip), vehicle: saline 112 % of control | dose: 250.0 mg/kg/injection, schedule: Q01DX001 (ip), vehicle: saline 113 % of control | dose: 500.0 mg/kg/injection, schedule: Q01DX001 (ip), vehicle: saline 112 % of control

O=C(O)CSc1ccc(NC(=O)Nc2ccccc2F)cc1
inactive: [7] 90 % of control | [8] 92 % of control | [9] 100 % of control | [10] 88 % of control | [11] 89 % of control | [12] 94 % of control | [13] 92 % of control | dose: 400.0 mg/kg/injection, schedule: Q01DX009 (ip), vehicle: saline with Tween-80 86 % of control | [14] 92 % of control

CN(C)Cc1cccc([N+](=O)[O-])c1
inactive: [15] 88 % of control | [16] 98 % of control | [9] 102 % of control

CCCCC(CC)C(=O)[O][Ge]([CH2]CCC)([CH2]CCC)[O]C(=O)C(CC)CCCC (stereo not drawn)
inactive: dose: 100.0 mg/kg/injection, schedule: Q01DX001 (ip), vehicle: saline with Tween-80 101 % of control | dose: 200.0 mg/kg/injection, schedule: Q01DX001 (ip), vehicle: saline with Tween-80 100 % of control | dose: 400.0 mg/kg/injection, schedule: Q01DX001 (ip), vehicle: saline with Tween-80 100 % of control

CC1(C)C(C#N)C(=O)N(Cc2ccccc2)C(=O)C1C#N (stereo not drawn)
inactive: dose: 100.0 mg/kg/injection, schedule: Q04DX003 (ip), vehicle: saline with Tween-80 101 % of control | dose: 200.0 mg/kg/injection, schedule: Q04DX003 (ip), vehicle: saline with Tween-80 93 % of control

CCN(CC)CCCNc1ncnc2c1C(c1ccccc1)c1ccccc1-2 (stereo not drawn)
inactive: dose: 5.0 mg/kg/injection, schedule: Q01DX001 (ip), vehicle: saline 98 % of control | dose: 10.0 mg/kg/injection, schedule: Q01DX001 (ip), vehicle: saline 96 % of control | dose: 20.0 mg/kg/injection, schedule: Q01DX001 (ip), vehicle: saline 93 % of control | [6] 93 % of control

CC1CCC2C(C)C3C(CC4C5CC=C6CC(OC7OC(COC8OC(CO)C(OC9OC(C)C(O)C(O)C9O)C(O)C8O)C(O)C(O)C7O)CCC6(C)C5CCC43C)N2C1 (stereo not drawn)
inactive: dose: 50.0 mg/kg/injection, schedule: Q04DX002 (ip), vehicle: Klucel (hydroxypropylcellulose) (HPC) 105 % of control | [17] 102 % of control

CCCCc1ccc(O)c(O)c1O
inactive: dose: 50.0 mg/kg/injection, schedule: Q01DX001 (sc), vehicle: olive oil, sesame oil, peanut oil 117 % of control | dose: 100.0 mg/kg/injection, schedule: Q01DX001 (sc), vehicle: olive oil, sesame oil, peanut oil 101 % of control and 106 % of control | dose: 200.0 mg/kg/injection, schedule: Q01DX001 (sc), vehicle: olive oil, sesame oil, peanut oil 101 % of control and 105 % of control | dose: 400.0 mg/kg/injection, schedule: Q01DX001 (sc), vehicle: olive oil, sesame oil, peanut oil 108 % of control

Cc1ccc(CNC(=S)Nc2ccccc2)c(C)c1
inactive: [17] 96 % of control | dose: 200.0 mg/kg/injection, schedule: Q04DX002 (ip), vehicle: Klucel (hydroxypropylcellulose) (HPC) 103 % of control | dose: 400.0 mg/kg/injection, schedule: Q04DX002 (ip), vehicle: Klucel (hydroxypropylcellulose) (HPC) 103 % of control

CC(C)(C)C(Br)CBr (stereo not drawn)
inactive: dose: 50.0 mg/kg/injection, schedule: Q01DX009 (ip), vehicle: saline with Tween-80 101 % of control | [8] 101 % of control | [11] 97 % of control

CC(C)COC(=O)C(C)OC(=O)OCCOCCOC(=O)OC(C)C(=O)OCC(C)C (stereo not drawn)
inactive: [7] 100 % of control | [10] 102 % of control | [13] 100 % of control

CN(C)CCOC(c1ccccc1)c1ccccc1 (tested in a mixture with another compound)
inactive: [7] 109 % of control | [10] 101 % of control | [13] 95 % of control

O=C(O)c1ccc(N=Cc2c(Cl)cccc2Cl)cc1
inactive: [18] 104 % of control | [19] 101 % of control | [20] 104 % of control

c1ccc(CCN2CCN(CCc3ccccn3)CC2)nc1
inactive: [7] 98 % of control

CCN1/C(=C/C=C2/SC(=S)N(CC(=O)O)C2=O)Oc2ccccc21
inactive: dose: 50.0 mg/kg/injection, schedule: Q01DX001 (ip), vehicle: saline 100 % of control | [7] 96 % of control | [10] 100 % of control | [13] 106 % of control

COc1ccc(C(O)c2nnc(-c3ccccc3)nn2)cc1 (stereo not drawn)
inactive: [3] 90 % of control | [4] 120 % of control | [5] 107 % of control

NS(=O)(=O)c1ccc(Cl)c([N+](=O)[O-])c1
inactive: [21] 98 % of control | [1] 91 % of control | [2] 91 % of control

O=S(=O)(F)c1cc(CBr)ccc1Cl
inactive: [21] 98 % of control | [1] 95 % of control | [2] 101 % of control

C[n+]1ccccc1C(=O)O
inactive: [7] 97 % of control | [9] 97 % of control | [10] 106 % of control | [12] 95 % of control | [13] 101 % of control | [14] 92 % of control

COc1cc2c(c3c1CCC(C)(C)O3)Cc1c(cc(OC)c(OC)c1CCC(C)(C)O)O2
inactive: dose: 100.0 mg/kg/injection, schedule: Q01DX001 (ip), vehicle: Klucel (hydroxypropylcellulose) (HPC) 103 % of control | dose: 200.0 mg/kg/injection, schedule: Q01DX001 (ip), vehicle: Klucel (hydroxypropylcellulose) (HPC) 96 % of control | dose: 400.0 mg/kg/injection, schedule: Q01DX001 (ip), vehicle: Klucel (hydroxypropylcellulose) (HPC) 92 % of control

CCN(CC)CCC(CNC(=O)CN(CC)CC)(c1cccc2ccccc12)C(C)C (stereo not drawn)
inactive: dose: 12.5 mg/kg/injection, schedule: Q01DX009 (ip), vehicle: saline 98 % of control | dose: 12.5 mg/kg/injection, schedule: Q04DX003 (ip), vehicle: saline 94 % of control | dose: 25.0 mg/kg/injection, schedule: Q01DX009 (ip), vehicle: saline 93 % of control | [15] 110 % of control | dose: 50.0 mg/kg/injection, schedule: Q01DX009 (ip), vehicle: saline 90 % of control | [16] 104 % of control

CCOC(=O)COc1ccc(/C=C/c2ccnc3ccccc23)cc1
inactive: [18] 100 % of control | [19] 106 % of control | [20] 94 % of control
